Results taken from patent US6362369B1, “Phthalic acid diamide derivatives fluorine-containing aniline compounds as starting material, agricultural and horticultural insecticides, and a method for application of the insecticides” (Nihon Nohyaku Co., Ltd., priority 1997, dated 2002).

Experiments:
Type in all cases: in vivo
[1] = test system: common cutworm (Spodoptera Litura); assay: Insecticidal effect on common cutworm (Test Example 2); conditions: 500 ppm, 25° C.; for Insecticidal effect on common cutworm (Test Example 2), judged grade / Insecticidal effect (Test Example 2), judged from mortality: cabbage leaf dip; for Insecticidal effect on common cutworm (Test Example 2), judged grade: second-instar larvae; for Insecticidal effect on common cutworm (Test Example 2), judged grade / Insecticidal effect, Test Example 2: eight days after inoculation; for Insecticidal effect, Test Example 2: cabbage leaf immersed; for Insecticidal effect (Test Example 2), judged from mortality: 8 days after inoculation
How it was run: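 2nd-instar larvae on air-dried treatment, closed dish, 25° C; dead/alive counted at day 8. Mortality calculated, graded by criterion. 3 × 10 insects.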

[2] = test system: rice leafroller (Cnaphalocrocis medinalis); assay: Insecticidal effect on rice leafroller (Test Example 3); conditions: 500 ppm, 25° C., humidity 70%; for Insecticidal effect on rice leafroller (Test Example 3), judged grade / Insecticidal effect (Test Example 3), judged from mortality: rice lamina dip; for Insecticidal effect on rice leafroller (Test Example 3), judged grade: third-instar larvae; for Insecticidal effect on rice leafroller (Test Example 3), judged grade / Insecticidal effect, Test Example 3: four days after inoculation; for Insecticidal effect, Test Example 3: rice lamina immersed; for Insecticidal effect (Test Example 3), judged from mortality: 4 days after inoculation
How it was run: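 Insecticidal effect is judged by a predefined criterion from dead/alive counts four days after infesting air-dried lamina with third-instar larvae, kept on moistened filter paper at 25° C, 70% humidity.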

[3] = test system: diamondback moth (Plutella xylostella); assay: Insecticidal effect on diamondback moth (Test Example 1); conditions: for Insecticidal effect on diamondback moth (Test Example 1), judged grade: mortality judged according to the criterion shown in Test Example 1; for Insecticidal effect, Test Example 1 / Insecticidal effect (Test Example 1), judged from mortality: diamondback moth; for Insecticidal effect (Test Example 1), judged from mortality: judged by the criterion of Test Example 1
How it was run: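 Triplicate groups of 10 insects: eggs laid on Chinese cabbage seedling by adults, seedling immersed then air-dried, kept at 25° C. Day-6 hatch counts gave mortality, rated by criterion.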

[4] = second-instar larvae of common cutworm
[5] = third-instar larvae of rice leafroller
[6] = judged by the mortality criterion of Test Example 1

| Structure (SMILES) | Insecticidal effect, Test Example 2 [1, 4] | Insecticidal effect, Test Example 3 [2, 5] | Insecticidal effect, Test Example 1 [3, 6] | Insecticidal effect (Test Example 2), judged from mortality [1, 4] | Insecticidal effect (Test Example 3), judged from mortality [2, 5] | Insecticidal effect (Test Example 1), judged from mortality [3] | other results |
| --- | --- | --- | --- | --- | --- | --- | --- |
| Cc1ccc(F)cc1NC(=O)c1cccc([N+](=O)[O-])c1C(=O)NCCF [compound 862] |  |  |  |  |  |  | Insecticidal effect on common cutworm (Test Example 2), judged grade [1]: D (79-50); Insecticidal effect on rice leafroller (Test Example 3), judged grade [2]: D (79-50); Insecticidal effect on diamondback moth (Test Example 1), judged grade [3]: A (100) |
| CC(C)NC(=O)c1c(F)cccc1C(=O)Nc1ccc(C(F)(C(F)(F)F)C(F)(F)F)cc1Cl [compound 507] |  |  |  |  |  |  | Insecticidal effect on common cutworm (Test Example 2), judged grade [1]: B (99-90); Insecticidal effect on rice leafroller (Test Example 3), judged grade [2]: A (100); Insecticidal effect on diamondback moth (Test Example 1), judged grade [3]: A (100) |
| COc1cccc(C(=O)NC(C)C)c1C(=O)Nc1cc(Cl)ccc1C [compound 770] |  |  |  |  |  |  | Insecticidal effect on common cutworm (Test Example 2), judged grade [1]: A (100); Insecticidal effect on rice leafroller (Test Example 3), judged grade [2]: A (100); Insecticidal effect on diamondback moth (Test Example 1), judged grade [3]: A (100) |
| Cc1cc(OC(F)(F)C(F)Cl)ccc1NC(=O)c1c(Br)cccc1C(=O)NC(C)C (stereo not drawn) [compound 329] | A (100) | A (100) | A (100) |  |  |  |  |
| Cc1cc(C(F)(F)C(F)(F)F)ccc1NC(=O)c1cccc(I)c1C(=O)NC(C)c1ccccn1 (stereo not drawn) [compound 1777] |  |  |  | A (100) | A (100) | A (100) |  |
| C#CC(C)(C)NC(=O)c1cccc(Cl)c1C(=O)Nc1ccc(C(F)(F)C(F)(F)F)cc1C [compound 1467] |  |  |  | A (100) | A (100) | A (100) |  |
| C#CC(C)(C)NC(=O)c1c(Cl)cccc1C(=O)Nc1ccc(OC(F)(F)F)cc1C [compound 1602] |  |  |  | A (100) | A (100) | A (100) |  |
| CC(C)(C)NC(=O)c1c(I)cccc1C(=O)Nc1ccc2c(c1)OC(F)(F)O2 [compound 1105] |  |  |  |  |  |  | Insecticidal effect, Test Example 2 ([1]; common cutworm second-instar larvae): A (100); Insecticidal effect, Test Example 3 ([2]; rice leafroller third-instar larvae): A (100); Insecticidal effect, Test Example 1 ([3]; mortality judged by criterion of Test Example 1): A (100) |
| CC(C)NC(=O)c1c(I)cccc1C(=O)Nc1ccc2nc(C(C)C)sc2c1 [compound 1764] |  |  |  | A (100) | A (100) | A (100) |  |
| CSc1cc(NC(=O)c2cccc(I)c2C(=O)NC(C)C)ccc1C(F)(C(F)(F)F)C(F)(F)F [compound 1766] |  |  |  | A (100) | A (100) | A (100) |  |
| Cc1cc(Br)ccc1NC(=O)c1cccc(Br)c1C(=O)NC(C)C [compound 272] | A (100) | A (100) | A (100) |  |  |  |  |
| Cc1c(NC(=O)c2c(I)cccc2C(=O)NC(C)C)cccc1C(F)(F)F [compound 435] | B (99-90) | A (100) | A (100) |  |  |  |  |
| Cc1c(NC(=O)c2cccc(I)c2C(=O)NC(C)C)cccc1C(F)(F)F [compound 370] | A (100) | A (100) | A (100) |  |  |  |  |
| Cc1cc(OC(F)F)ccc1NC(=O)c1ccc(Br)c(Br)c1C(=O)NC(C)C [compound 338] | B (99-90) | A (100) | A (100) |  |  |  |  |
| Cc1ccc(Cl)cc1NC(=O)c1cccc(Cl)c1C(=O)NC(C)C [compound 120] | D (79-50) | A (100) | A (100) |  |  |  |  |
| Cc1cc(OC(F)(F)C(F)F)ccc1NC(=O)c1cccc(F)c1C(=O)NC(C)C [compound 512] |  |  |  |  |  |  | Insecticidal effect on common cutworm (Test Example 2), judged grade [1]: A (100); Insecticidal effect on rice leafroller (Test Example 3), judged grade [2]: A (100); Insecticidal effect on diamondback moth (Test Example 1), judged grade [3]: A (100) |
| COc1ccc(C#CC(C)(C)NC(=O)c2c(Cl)cccc2C(=O)Nc2ccc(C(F)(F)C(F)(F)F)cc2C)cc1 [compound 1572] |  |  |  | A (100) | A (100) | A (100) |  |
| Cc1ccc(NC(=O)c2cccc([N+](=O)[O-])c2C(=O)NC(C)C)c(C)c1 [compound 648] |  |  |  |  |  |  | Insecticidal effect on common cutworm (Test Example 2), judged grade [1]: D (79-50); Insecticidal effect on rice leafroller (Test Example 3), judged grade [2]: A (100); Insecticidal effect on diamondback moth (Test Example 1), judged grade [3]: A (100) |
